Experimental data published in patent US20060069132A1, “Azolecarboxamide herbicides” (priority 2004, published 2006).

What was measured:
Surinam grass = assay: Test C pre-/postemergence herbicide test; assay type: in vivo, Urochloa decumbens; settings: for Plant response rating, Surinam Grass: preemergence
Method in brief: (§1)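 Emerged plants at the 1- to 4-leaf stage (2–18 cm), or freshly planted seeds, received test chemicals in a non-phytotoxic solvent mixture with surfactant. Response was visually scored against controls after 12 to 14 days in the greenhouse, on a 0 (no effect) to 100 (complete control) scale.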

rice [1] = assay: Test B pre-/postemergence herbicide test; assay type: in vivo, Oryza sativa; settings: preemergence; for Rice plant response rating (0 to 100 scale): 125 g ai/ha; for Plant response rating, Rice: 500 g ai/ha
Method in brief: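 Species tested were Echinochloa crus-galli, Ipomoea coccinea, Xanthium strumarium and Oryza sativa, treated both before emergence and at the 1- to 4-leaf stage; rice and barnyardgrass were also tested under flooding at 2 leaves. Greenhouse incubation lasted 13–15 days before visual 0–100 scoring.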

[2] = system: common (oilseed) sunflower; assay: Test C pre-/postemergence herbicide test; assay type: in vivo, Helianthus annuus; settings: for Plant response rating, Sunflower: preemergence
Method in brief: as §1

barnyardgrass = assay: Test C flooded paddy test; assay type: in vivo, Echinochloa crus-galli; settings: for Plant response rating, Barnyardgrass: 500 g ai/ha, visual rating after 12 to 14 days
Method in brief: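 Injury scored visually against controls on a 0 (no effect) to 100 (complete control) scale, 12 to 14 days after treatment in greenhouse. Flooded paddy plants treated at 2-leaf stage; postemergence plants at 1- to 4-leaf stage, 2 to 18 cm tall.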

rice [3] = assay: Test C flooded paddy test; assay type: in vivo, Oryza sativa; settings: for Plant response rating, Rice: 500 g ai/ha, visual rating after 12 to 14 days
Method in brief: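 Plants were grown to the 1- to 4-leaf stage (2–18 cm) and then treated postemergence, or grown to the 2-leaf stage for the flooded paddy test. They were held in a greenhouse for 12 to 14 days and then scored by eye against controls, where 0 is no effect and 100 is complete control.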

[4] = 125 g ai/ha, scale 0 (no effect) to 100 (complete control), visual, 12 to 14 days
[5] = Preemergence, 500 g ai/ha, scale 0 to 100, 0 no effect, 100 complete control
[6] = 0 = no effect, 100 = complete control
[7] = 62 g ai/ha, scale 0 to 100 (0 no effect, 100 complete control)
[8] = 125 g ai/ha, scale 0 to 100 (0 no effect, 100 complete control)
[9] = 250 g ai/ha, scale of 0 to 100, 0 is no effect, 100 is complete control
[10] = scale 0 to 100 (0 no effect, 100 complete control)
[11] = 500 g ai/ha, scale 0 to 100 (0 no effect, 100 complete control), visual, 12 to 14 days
[12] = visual rating, 0 = no effect, 100 = complete control

SMILES	Plant response rating, Surinam Grass (Surinam grass; 62 g ai/ha, scale 0 to 100)	Plant response rating, Surinam Grass (Surinam grass; 250 g ai/ha, scale 0-100)	Rice plant response rating (0 to 100 scale) (rice [1]; [6])	Plant response rating, Sunflower ([2]; 62 g ai/ha, scale 0 to 100)	Plant response rating, Sunflower ([2]; 250 g ai/ha, scale 0-100)	Barnyardgrass plant response rating (barnyardgrass; [7])	Barnyardgrass plant response rating (barnyardgrass; [8])	Barnyardgrass plant response rating (barnyardgrass; [9])	Plant response rating, Barnyardgrass (barnyardgrass; [10])	Rice plant response rating (rice [3]; [7])	Rice plant response rating (rice [3]; [8])	Rice plant response rating (rice [3]; [9])	Plant response rating, Rice (rice [3]; [10])	Plant response rating, Surinam Grass (Surinam grass; [11])	Plant response rating, Rice (rice [1]; [12])	Plant response rating, Sunflower [2, 11]	Rice plant response rating (rice [3]; 62 g ai/ha, scale 0 to 100)	further results
CCNC(=O)c1ccc(F)c(NC(=O)c2cn(C(C)(C)C)nc2CC)c1 [Compound 193]	50	95	80	0	0	30	55	85	90	25	50	70	75					Plant response rating, Surinam Grass (Surinam grass; [4]): 80; Surinam Grass plant response rating (Surinam grass; [5]): 100; Plant response rating, Rice (rice [1]; visual rating 0-100, 0 no effect, 100 complete control): 100; Plant response rating, Sunflower [2, 4]: 0; Sunflower plant response rating [2, 5]: 50
CCn1nc(C(C)(C)C)cc1C(=O)Nc1cc(C(=O)N(C)OC)ccc1F [Compound 244]	100	100	60	0	15	0	70	75	80	40	70	75	75	100	80	20		
CCn1nc(C(C)(C)C)cc1C(=O)Nc1ccc(OC)c(OC)c1 [Compound 298]	5	40	40	0	0	15	50	65	90		60	65	75	70	60	0	45	
CCn1nc(C2(C)CC2)cc1C(=O)Nc1cc(C(=O)N2CC=CC2)ccc1F [Compound 301]	0	80	10	0	0	50	75	90	95		55	75	85	90	70	0	50	
